The values below come from US20250027123A1, “Compositions, Systems, and Methods for Performing a Mannich Cyclization Reaction” (The Regents of the University of California, priority 2023, published 2025).

The target of test [1] is T1, LolT (Penicillium expansum, UniProt A0A0A2J6G6). Kind of test: Steady-state kinetic analysis of LolT-catalyzed Mannich cyclization. It counts as biochemical, P. expansum. To be noted: reaction forming the named product. As for the experimental part:
FIGS. 10A-10B provide data of steady-state kinetic study of LolT and LolD. […] The results from both Fmoc-Cl and OPA derivatization were shown for comparison.
FIG. 10B: Kinetic analysis of LolD-catalyzed nonoxidative decarboxylation. All reactions were performed in assay buffer: phosphate buffer (pH 7.5), 50 μM PLP, corresponding substrate at various concentrations. For 5-endo cyclization, LolT was added to a final concentration of 0.1 μM and the reaction was quenched after 1 min; while for 6-endo cyclization, LolT was added to a final concentration of 1 μM and the reaction was quenched after 1 min, and for 7-endo cyclization, LolT was added to a final concentration of 10 μM and the reaction was quenched after 5 min. For decarboxylation reaction, LolD was added to a final concentration of 1 μM and the reaction was quenched after 20 min. The derivatization method was described in the methods section. All assays were performed in triplicates at 28° C. and individual point was shown on the plot. Except for reaction forming 5, all data were fitted to the standard Michalis-Menton equation.
Enzymatic assays for LolT and LolD. A typical reaction mixture (˜50 μl) includes ˜1 mM amino acid substrate in the assay buffer (50 mM K2HPO4, 50 μM PLP, pH 7.5). […] The product was quantified based on the peak area of derivatized sample and compared with standard curve. […]

Test [2] concerns the target T1, LolT. Description: Two-component Mannich cyclization assay. Particulars: diamino acid plus aldehyde, KPi buffer. It counts as biochemical, P. expansum. How it is done:
Two-component Mannich cyclization assay. A typical reaction mixture at analytical scale (˜50 μL) includes 5 μM LolT, 5 mM diamino acid substrate, and 25 mM aldehyde substrates in 50 mM KPi buffer supplemented with 5% (v/v) DMSO. The reaction mixture was taken at different time points and derivatized with ortho-phthaldialdehyde (OPA) and 5-mercaptopentanoic acid before analysis on LC-MS. The pH value, reaction temperature, reaction time, and free PLP concentration (0.1%-10% mol) were optimized for selected reactions according to the analytic yield and diastereisomeric ratio (d.r.). Optimized reactions were scaled up to isolate the corresponding product for structural determination. To ease product isolation, the reaction mixtures were derivatized with Boc anhydride and isolated by reverse-phase chromatography. The isolated Boc-protected products were deprotected with TFA/CH2Cl2 and the isolation yields were calculated based on the Boc-protected form. To determine the enantiomeric excess (e.e.), isolated products were derivatized with Na-(5-fluoro-2,4-dinitrophenyl)-L-leucinamide and Na-(5-fluoro-2,4-dinitrophenyl)-D-leucinamide and separated on LC-MS. Briefly, 10 μL of amino acid product (10 mM in MeOH) was mixed with 10 μL of Na2CO3 (1 mM) and 10 μL of derivatizing reagent. […] The resulting mixture was analyzed by LC-MS.

Test [3] deals with T1, LolT. Type of test: biochemical. Particulars: 10 μM LolT, 4 mM diamino acid, pH 7.5 in D2O, 28° C. How it is done:
FIGS. 16A-16D provides reaction schematics and data of hydrogen-deuterium exchange assay of LolT with diamino acid substrate analogues. All reactions were monitored by 1H-NMR spectra and boiled enzymes were used as control. For mass data analysis, the reaction mixtures were derivatized with Fmoc-Cl.
H/D exchange assay. […] Reaction was incubated at 28° C. and monitored by NMR and LC-MS (reaction mixture was derivatized with Fmoc-Cl as described above before MS analysis). Fully deuterated products were further derivatized with Marfey's reagent (TCL) for chiral analysis. Briefly, an 80 μL reaction mixture was mixed with 20 μL acetone solution of Marfey's reagent (50 mM) and 20 μL NaHCO3 solution (1 M). The resulting mixture was incubated in a 42° C. water bath for 30 min. Next, 10 μL HCl (2M) was added to the derivatization mixture to quench the reaction. The resultant solution was analyzed on a Shimadzu LC-40 HPLC equipped with a Cosmosil, C18 AR-II analytical column. Derivatized amino acids were eluted with a linear gradient from 10% acetonitrile and to 40% acetonitrile over 20 min with a flow rate at 1 mL/min. All HPLC solvents (water and acetonitrile) were supplemented with 0.1% (v/v) formic acid.

For test [4], the target named is T2, LolD (Epichloe uncinata, UniProt Q5MNI5).
T2 construct: Bacterial expression plasmids were ordered from Twist Biosciences; made in house; host or cells: E. coli BL21(DE3)
T2 sequence (Q5MNI5 1-420): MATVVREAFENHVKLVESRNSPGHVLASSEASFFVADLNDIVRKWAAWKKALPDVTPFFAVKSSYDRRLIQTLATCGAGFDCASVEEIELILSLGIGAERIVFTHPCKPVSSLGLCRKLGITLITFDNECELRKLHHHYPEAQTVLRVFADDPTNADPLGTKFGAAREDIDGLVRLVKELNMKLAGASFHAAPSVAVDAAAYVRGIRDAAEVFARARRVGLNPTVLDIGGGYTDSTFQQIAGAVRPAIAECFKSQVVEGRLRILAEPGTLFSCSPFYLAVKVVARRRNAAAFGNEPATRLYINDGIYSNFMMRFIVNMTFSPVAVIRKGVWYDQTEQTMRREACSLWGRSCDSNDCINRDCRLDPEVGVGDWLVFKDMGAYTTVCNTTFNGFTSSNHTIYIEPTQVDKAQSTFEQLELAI
Kind of test: Enzymatic assay for LolD (conversion monitored by HPLC/LC-MS after Fmoc-Cl derivatization). It counts as biochemical, E. uncinate. Particulars: phosphate buffer pH 7.5, 28° C. The text has this:
FIGS. 4A-4D provides schematics and data identifying LolT as a PLP-dependent Mannich cyclase. FIG. 4A provides a schematic depicting an elucidated pathway for the pyrrolizidine formation of loline. FIG. 4B provides HPLC analysis showing the reactions catalysed by LolT and LolD. All reactions were repeated for at least 3 times. Products were derivatized with Fmoc-Cl and analyzed by HPLC using a C18 column (Phenomenex Kinetex, 1.7 μm, 2.0×100 mm) with a linear elution gradient of 2-98% MeCN—H2O solvent system supplemented with 0.1% formic acid as additive. FIG. 4C provides DFT-calculated Mannich cyclization transition state for anti TS-1. FIG. 4D provides DFT-calculated Mannich cyclization transition state for syn TS-2.
FIGS. 7A-7B provides data of control experiments testing the function LolT and LolD using alternative substrates. FIG. 7A: Incubating LolD (10 μM) with 2 (1 mM) in phosphate buffer (pH 7.5) for 12 hrs at 28° C. FIG. 7B: Incubating LolT (1 μM) with decarboxylated 2 (1 mM) in phosphate buffer (pH 7.5) for 12 hrs at 28° C. All reactions were derivatized with Fmoc-Cl (50 mM) and analyzed by HPLC and LCMS. Decarboxylated 2 was prepared in situ by global deprotection of 12b, synthesis of 12b.
Enzymatic assays for LolT and LolD. […] The product was quantified based on the peak area of derivatized sample and compared with standard curve. […]

T1 sequence (A0A0A2J6G6 entry or part of it): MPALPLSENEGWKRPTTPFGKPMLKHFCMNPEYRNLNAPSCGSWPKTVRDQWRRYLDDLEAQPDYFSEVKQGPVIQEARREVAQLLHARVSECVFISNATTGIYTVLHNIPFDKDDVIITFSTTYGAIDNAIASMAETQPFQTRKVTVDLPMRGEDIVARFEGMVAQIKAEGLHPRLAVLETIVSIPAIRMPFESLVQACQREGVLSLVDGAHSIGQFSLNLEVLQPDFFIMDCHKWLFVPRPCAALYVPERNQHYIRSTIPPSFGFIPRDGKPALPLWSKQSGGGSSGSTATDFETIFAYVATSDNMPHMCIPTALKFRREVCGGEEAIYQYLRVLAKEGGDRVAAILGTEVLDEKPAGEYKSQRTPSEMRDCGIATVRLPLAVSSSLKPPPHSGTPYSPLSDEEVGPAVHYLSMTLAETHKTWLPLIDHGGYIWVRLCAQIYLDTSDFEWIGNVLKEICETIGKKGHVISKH

`N[C@@]1(C(=O)O)CCCCN2CCC[C@@H]21` [compound 7, (9S,9aR)-9-aminooctahydro-1H-pyrrolo[1,2-a]azepine-9-carboxylic acid]: in test [1], the “decrease of catalytic efficiency in comparison with 5-endo-trig cyclization to make 3” value was ~1,000 fold. Turning to `NCCCC[C@H](N)C(=O)O` [lysine], the “Mannich cyclization as amino acid donor with aldehydes (in words)” value in test [2] is listed as “No Mannich cyclization reaction took place”. For `NCC[C@H](N)C(=O)O` [L-Dab, (S)-2,4-diaminobutanoic acid], the “Cα-H H/D exchange (carbanion formation) with LolT in D2O (in words)” value in test [3] was “rapidly washed out”. On to `N[C@@]1(C(=O)O)CCN2CCC[C@@H]21` [compound 3, (1S,7aR)-1-aminohexahydro-1H-pyrrolizine-1-carboylic acid], for which the “conversion on incubation with LolD (in words)” value in test [4] is “quantitative conversion”. For `N[C@@]1(C(=O)O)CCCN2CCC[C@@H]21` [compound 5, (8S,8aR)-8-aminooctahydroindolizine-8-carboxylic acid], the “decrease of catalytic efficiency in comparison with 5-endo-trig cyclization to make 3” value in test [1] was around 12 fold.

`NCC[C@@H](N)C(=O)O` [D-Dab]: in test [3], the “Cα-H H/D exchange (carbanion formation) with LolT in D2O (in words)” value is given as “no H/D exchange occurred”.
